Measured values taken from patent US12178793B2, “Ophthalmic compositions containing a nitric oxide releasing prostamide” (NICOX SA, priority 2018, dated 2024).
Values after ≈ are worked out from the molar mass of the structure shown.

What was measured:
[1] = Aqueous solubility of the active ingredient; type: physicochemical; details: water, read-out: minimum aqueous solubility
Experimental: Hexanoic acid, 6-(nitrooxy)-, (1S,2E)-3-[(1R,2R,3S,5R)-2-[(2Z)-7-(ethylamino)-7-oxo-2-hepten-1-yl]-3,5-dihydroxycyclopentyl]-1-(2-phenylethyl)-2-propen-1-yl ester is a viscous oil having a minimum aqueous solubility of 0.02 mg/ml therefore aqueous pharmaceutical compositions of hexanoic acid, 6-(nitrooxy)-, (1S,2E)-3-[(1R,2R,3S,5R)-2-[(2Z)-7-(ethylamino)-7-oxo-2-hepten-1-yl]-3,5-dihydroxycyclopentyl]-1-(2-phenylethyl)-2-propen-1-yl ester must contain solubilizing agents that increase the water solubility of the compound and allow achieving therapeutically active concentrations of the compound.

[2] = Solubility in aqueous solutions at pH 6.0 containing a solubilizing agent; type: physicochemical
[3] = cited from earlier work
[4] = Pharmacokinetic evaluation after single ocular instillation, Study 2 (bimatoprost free acid in aqueous humor); type: in vivo, Dutch Belted Rabbits; details: bimatoprost free acid in aqueous humor as marker; benzalkonium chloride up to 0.02% w/w
Excerpt: Pharmacokinetic Evaluation in Dutch Belted Rabbits after Single Ocular Instillation
The aim of this study was to assess the aqueous humor content of bimatoprost free acid following topical ocular dosing with three different aqueous ophthalmic solutions containing hexanoic acid, 6-(nitrooxy)-, (1S,2E)-3-[(1R,2R,3S,5R)-2-[(2Z)-7-(ethylamino)-7-oxo-2-hepten-1-yl]-3,5-dihydroxycyclopentyl]-1-(2-phenylethyl)-2-propen-1-yl ester (0.042% w/w) in three different vehicles reported in Table 10.
Forty animals were included in the study. They were allocated into four groups of 10 animals/group and were administered with the above reported tested aqueous ophthalmic solutions
All animals included in the study were administered by ocular instillation of both eyes by means of a graduated pipette at a volume of […]. Two animals per formula were sacrificed at 0 h (pre-dose), 1 h, 2 h, 4 h and 8 h, and aqueous humor samples were obtained immediately from both eyes.

| Compound | solubility [1] [µg/mL] | solubility ([2]; aqueous solution at pH 6.0 containing 0.5% (w/w) macrogol 15-hydroxystearate (Kolliphor HS15)) | solubility ([2]; aqueous solution at pH 6.0 containing 0.5% (w/w) polysorbate 80 (Tween 80)) | intra ocular pressure (IOP)-lowering ([3]; Impagnatiello et al., Invest Ophthalmol Vis Sci. 2015) | IOP-lowering efficacy versus bimatoprost ([3]; vs equimolar doses of bimatoprost, vehicle 0.25% Tween 80, 0.02% BAK, 2% glycerine and 0.1% EDTA, Br J Pharmacol 2018) | effect of the excipient on the ocular penetration of NCX 470 [4] |
| --- | --- | --- | --- | --- | --- | --- |
| CCNC(=O)CCC/C=C\C[C@@H]1[C@@H](/C=C/[C@H](CCc2ccccc2)OC(=O)CCCCCO[N+](=O)[O-])[C@H](O)C[C@@H]1O [NCX 470, Hexanoic acid, 6-(nitrooxy)-, (1S,2E)-3-[(1R,2R,3S,5R)-2-[(2Z)-7-(ethylamino)-7-oxo-2-hepten-1-yl]-3,5-dihydroxycyclopentyl]-1-(2-phenylethyl)-2-propen-1-yl ester] | 20 (≈ 34.8 µM) | 0.070 % (w/w) | 0.074 % (w/w) | effective | greater IOP-lowering efficacy |  |
| benzalkonium chloride |  |  |  |  |  | did not exert any effect |
